Data taken from patent publication US11013696B2, “Lipids and lipid compositions for the delivery of active agents” (Novartis AG, priority 2013, dated 2021).

Assay: siRNA encapsulation in lipid nanoparticles (SYBR Gold)
Format: physicochemical
Settings: Table 2; FVII siRNA in LNP with the cationic lipid
Description: The lipid nanoparticles (LNPs) were formed by mixing equal volumes of lipids dissolved in alcohol with siRNA dissolved in a citrate buffer by an impinging jet process. The lipid solution contains a cationic lipid compound of the invention, a helper lipid (cholesterol), an optional neutral lipid (DSPC) and a PEG (PEG) lipid at a concentration of 8-16 mg/mL with a target of 12 mg/mL in an alcohol. The siRNA to total lipid ratio is approximately 0.05 (wt/wt). Where a LNP formulation contains four lipid components, the molar ratios of the lipids ranges from 20 to 70 mole percent for the cationic lipid with a target of 40-60, the mole percent of helper lipid ranges from 20 to 70 with a target of 30 to 50, the mole percent of neutral lipid ranges from 0-30, the mole percent of PEG lipid has a range from 1 to 6 with a target of 2 to 5. The concentration of siRNA solution ranges from 0.7 to 1.0 mg/mL with a target of 0.8 to 0.9 mg/mL in a sodium citrate: sodium chloride buffer pH 4-6, with a target of 4.5-5.5. The LNPs are formed by mixing equal volumes of lipid solution in ethanol with siRNA dissolved in a citrate buffer by an impinging jet process through a mixing device with ID ranging from 0.25 to 2.0 mm at a flow rate from 10 to 640 mL/min. The mixed LNP solution is held at room temperature for 0-24 hrs prior to a dilution step. The solution is then concentrated and diafiltered with suitable buffer by ultrafiltration or dialysis process using membranes with a MW cutoff from 30 to 500 KD. The final product is sterile filtered and stored at 4° C.
The lipid nanoparticles (LNPs) were formed by mixing equal volumes of lipids dissolved in alcohol with siRNA dissolved in a citrate buffer by an impinging jet process. The lipid solution contains a cationic lipid compound of the invention, a helper lipid (cholesterol), an optional neutral lipid (DSPC) and a stealth lipid (5010, S024, S027, or S031) at a concentration of 8-16 mg/mL with a target of 12 mg/mL in an alcohol. The siRNA to total lipid ratio is approximately 0.05 (wt/wt). Where a LNP formulation contains four lipid components, the molar ratios of the lipids ranges from 20 to 70 mole percent for the cationic lipid with a target of 40-60, the mole percent of helper lipid ranges from 20 to 70 with a target of 30 to 50, the mole percent of neutral lipid ranges from 0-30, the mole percent of PEG lipid has a range from 1 to 6 with a target of 2 to 5. The concentration of siRNA solution ranges from 0.7 to 1.0 mg/mL with a target of 0.8 to 0.9 mg/mL in a sodium citrate: sodium chloride buffer pH 4-6, with a target of 4.5-5.5. The LNPs are formed by mixing equal volumes of lipid solution in ethanol with siRNA dissolved in a citrate buffer by an impinging jet process through a mixing device with ID ranging from 0.25 to 2.0 mm at a flow rate from 10 to 640 mL/min. The mixed LNP solution is held at room temperature for 0-24 hrs prior to a dilution step. The solution is then concentrated and diafiltered with suitable buffer by ultrafiltration process using membranes with a MW cutoff from 30 to 500 KD. The final product is sterile filtered and stored at 4° C.
SYBR Gold flourescence reagent is used for the determination of siRNA encapsulation in the DLP's. DLP's with and without triton x-100 are used to determine the free siRNA and total siRNA amounts. DLP's samples with and without triton X-100 were excited at 485 nm and flourescence emission is measured at 530 nm. Encapsulation efficiency is calculated based on the following formula: Encapsulation efficiency:[([…])/(total siRNA concentration)]×100% Encapsulation Data

Compared with CCCCC/C=C\C/C=C\CCCCCCCCC(CCC(=O)OC(COC(=O)CCCCCCC)COC(=O)CCCCCCC)OC(=O)OCCCN(CC)CC (centres unmarked) [Example 95, 2-(((13Z,16Z)-4-(((3-(diethylamino)propoxy)carbonyl)oxy)docosa-13,16-dienoyl)oxy)propane-1,3-diyl dioctanoate], CCCCCCCCCCCCC(CCC(=O)OC(COC(=O)CCCCCCCCC)COC(=O)CCCCCCCCC)OC(=O)OCCCN(CC)CC (centres unmarked) [Example 90, 2-((4-(((3-(diethylamino)propoxy)carbonyl)oxy)hexadecanoyl)oxy)propane-1,3-diyl bis(decanoate)] is higher in “% encapsulation siRNA FVII” value: 86.9% for the first, 91.4% for the second.

First: CCCCCCCCCCCCC(CCOC(=O)CCCCC=C(CCCCCC)CCCCCC)OC(=O)OCCCN(C)C (centres unmarked) [Example 26, 3-(((3-(dimethylamino)propoxy)carbonyl)oxy)pentadecyl 7-hexyltridec-6-enoate]
Second: CCCCCCCCCCCCC(CCOC(=O)C=C(CCCCCCCC)CCCCCCCC)OC(=O)OCCCN(C)C (centres unmarked) [Example 25, 3-(((3-(dimethylamino)propoxy)carbonyl)oxy)pentadecyl 3-octylundec-2-enoate]
The “% encapsulation siRNA FVII” value of the first is higher: 89.8% for the first, 87.1% for the second.

Going from CCCCCCCCCCCCCC(=O)OCC(COC(=O)CCCCCCCCCCCCC)OC(=O)CCC(CCCCCCCCCCCC)OC(=O)OCCCN(C)C (centres unmarked) [Example 85, 2-((4-(((3-(dimethylamino)propoxy)carbonyl)oxy)hexadecanoyl)oxy)propane-1,3-diyl ditetradecanoate] to CCCCCCCCCCCCC(CCC(=O)OC(COC(=O)CCCCCCCCCCC)COC(=O)CCCCCCCCCCC)OC(=O)OCCCN(C)C (centres unmarked) [Example 87, 2-((4-(((3-(dimethylamino)propoxy)carbonyl)oxy)hexadecanoyl)oxy)propane-1,3-diyl didodecanoate], the “% encapsulation siRNA FVII” value falls from 85.7% to 77.5%.

Going from CCCCCCCC(=O)OCCCCCCCCCCC(CCOC(=O)CCCCCCCC(CCCCC)CCCCC)OC(=O)OCCCN(C)C (centres unmarked) [Example 66, 3-(((3-(dimethylamino)propoxy)carbonyl)oxy)-13-(octanoyloxy)tridecyl 9-pentyltetradecanoate] to CCCCCCCC(=O)OCCCCCCCCCCC(CCOC(=O)CCCC(CCCCCCC)CCCCCCC)OC(=O)OCCCN(C)C (centres unmarked) [Example 63, 3-(((3-(dimethylamino)propoxy)carbonyl)oxy)-13-(octanoyloxy)tridecyl 5-heptyldodecanoate], the “% encapsulation siRNA FVII” value rises from 83.4% to 85.6%.

Compared with CCCCC/C=C\C/C=C\CCCCCCCCC(CCOC(=O)CCCCCCCC(CCCCC)CCCCC)OC(=O)CCCN(C)C (centres unmarked) [Example 53, (12Z,15Z)-3-((4-(dimethylamino)butanoyl)oxy)henicosa-12,15-dien-1-yl 9-pentyltetradecanoate], CCCCC/C=C\C/C=C\CCCCCCCCC(CCOC(=O)CCCCCC(CCCCCC)CCCCCC)OC(=O)CCCN(C)C (centres unmarked) [Example 52, (12Z,15Z)-3-((4-(dimethylamino)butanoyl)oxy)henicosa-12,15-dien-1-yl 7-hexyltridecanoate] is lower in “% encapsulation siRNA FVII” value: 85.6% for the first, 84.6% for the second.

Compared with CCCCCCCCC(CCCCCCCC)CC(CCCCOC(=O)CCCCCCC)OC(=O)OCCCN(C)C (centres unmarked) [Example 71, 5-(((3-(dimethylamino)propoxy)carbonyl)oxy)-7-octylpentadecyl octanoate], CCCCCCCCCCCCC(CCOC(=O)CCCCCCCC(CCCCC)CCCCC)OC(=O)OCCCN(C)C (centres unmarked) [Example 27, 3-(((3-(dimethylamino)propoxy)carbonyl)oxy)pentadecyl 9-pentyltetradecanoate] is lower in “% encapsulation siRNA FVII” value: 86.7% for the first, 86.6% for the second.

First: CCCCC/C=C\C/C=C\CCCCCCCC(=O)OCCC(CCCCCCCCCCCC)OC(=O)OCCCN(C)C (centres unmarked) [Example 43, (9Z,12Z)-3-(((3-(dimethylamino)propoxy)carbonyl)oxy)pentadecyl octadeca-9,12-dienoate]
Second: CCCCC/C=C\C/C=C\CCCCCCCC(=O)OCCC(CCCCCCCCCCOC(=O)CCCCCCC)OC(=O)OCCCN(C)C (centres unmarked) [Example 60, (9Z,12Z)-3-(((3-(dimethylamino)propoxy)carbonyl)oxy)-13-(octanoyloxy)tridecyl octadeca-9,12-dienoate]
The “% encapsulation siRNA FVII” value of the first is higher: 86.8% for the first, 82.4% for the second.

Compared with CCCCCCCCCCCCC(CCOC(=O)CCC(OCC(CC)CCCC)OCC(CC)CCCC)OC(=O)OCCCN(CC)CC (centres unmarked) [Example 12, 3-(((3-(diethylamino)propoxy)carbonyl)oxy)pentadecyl 4,4-bis((2-ethylhexyl)oxy)butanoate], CCCCCCCCCCCCC(COC(=O)CCC(OCC(CC)CCCC)OCC(CC)CCCC)OC(=O)OCCCN(CC)CC (centres unmarked) [Example 48, 2-(((3-(diethylamino)propoxy)carbonyl)oxy)tetradecyl 4,4-bis((2-ethylhexyl)oxy)butanoate] is lower in “% encapsulation siRNA FVII” value: 91.7% for the first, 89.3% for the second.

Compared with CCCCC/C=C\C/C=C\CCCCCCCC(=O)OCC(COC(=O)CCCCCCC/C=C\C/C=C\CCCCC)OC(=O)CCC(CCCCCCCCCCCC)OC(=O)OCCCN(CC)CC (centres unmarked) [Example 81, (9Z,9′Z,12Z,12′Z)-2-((4-(((3-(diethylamino)propoxy)carbonyl)oxy)hexadecanoyl)oxy)propane-1,3-diyl bis(octadeca-9,12-dienoate)], CCCCC/C=C\C/C=C\CCCCCCCCOC(=O)OCCC(CCCCCCCC/C=C\C/C=C\CCCCC)OC(=O)CCN(C)C (centres unmarked) [Example 54, (12Z,15Z)-1-((((9Z,12Z)-octadeca-9,12-dien-1-yloxy)carbonyl)oxy)henicosa-12,15-dien-3-yl 3-(dimethylamino)propanoate] is higher in “% encapsulation siRNA FVII” value: 48.8% for the first, 88.6% for the second.

Going from CCCCC/C=C\C/C=C\CCCCCCCCC(COCCOC(=O)CCCCCCC/C=C\C/C=C\CCCCC)OC(=O)CCN(C)C (centres unmarked) [Example 59, (9Z,12Z)-2-(((11Z,14Z)-2-((3-(dimethylamino)propanoyl)oxy)icosa-11,14-dien-1-yl)oxy)ethyl octadeca-9,12-dienoate] to CCCCC/C=C\C/C=C\CCCCCCCC(=O)OCCCCC(CC(CCCCCCCC)CCCCCCCC)OC(=O)OCCCN(C)C (centres unmarked) [Example 72, (9Z,12Z)-5-(((3-(dimethylamino)propoxy)carbonyl)oxy)-7-octylpentadecyl octadeca-9,12-dienoate], the “% encapsulation siRNA FVII” value falls from 90.2% to 62.5%.

First: CCCCCCCC(CCCCCCC)CCCC(=O)OCCC(CCCCCCCCCCO)OC(=O)OCCCN(C)C (centres unmarked) [Example 62, 3-(((3-(dimethylamino)propoxy)carbonyl)oxy)-13-hydroxytridecyl 5-heptyldodecanoate]
Second: CCCCCC(CCCCC)CCCCCCCC(=O)OCCC(CCCCCCCCCCO)OC(=O)OCCCN(C)C (centres unmarked) [Example 65, 3-(((3-(dimethylamino)propoxy)carbonyl)oxy)-13-hydroxytridecyl 9-pentyltetradecanoate]
The “% encapsulation siRNA FVII” value of the first is higher: 75.2% for the first, 39.5% for the second.

With CCCCCCCCCCCCC(CCOC(=O)CC(CCCCCCCC)CCCCCCCC)OC(=O)OCCCN(C)C (centres unmarked) [Example 24, 3-(((3-(dimethylamino)propoxy)carbonyl)oxy)pentadecyl 3-octylundecanoate] the “% encapsulation siRNA FVII” value was 86.8%.
